Assay results reported in patent publication US6806265B2, “Non-nucleoside reverse transcriptase inhibitors” (priority 2002, dated 2004).
Read-outs that look alike come from different tables or passages of the source.

Columns and labels:
[1] = system: HIV-1 wild type; assay: microbe, parasite or virus in culture; assay type: cell-based
[2] = system: HIV-1 double mutant K103N/Y181C; assay: microbe, parasite or virus in culture; assay type: cell-based
[3] = biological target: T1, HIV-1 RT double mutant K103N/Y181C (Human immunodeficiency virus type 1 group M subtype B, UniProt P03366, K702N/Y780C); assay: biochemical
T1 construct: HIV-1 wild type reverse transcriptase as well as the clinically significant double mutant K103N/Y181C
Method: (§1) Utilizing the Reverse Transcriptase (RT) Assay described below, compounds were tested for their ability to inhibit the RNA-dependent DNA polymerase activity of HIV-1 RT. Certain specific compounds described in the Examples and in Tables 1-4, were so tested. The results of this testing appear in Table 5 as ranges of IC50 (nM) and EC50 (nM).
(§2) Reverse Transcriptase (RT) Assays

[4] = biological target: T2, HIV-1 wild type reverse transcriptase (Human immunodeficiency virus type 1 group M subtype B, UniProt P03366); assay: biochemical; settings: wild type RT; read-out: IC50 WT RT
T2 construct: HIV-1 wild type reverse transcriptase
Method: as §1, §2

[5] = Human immunodeficiency virus 1, read-out: EC50 WT RT (nM)
[6] = Human immunodeficiency virus 1, read-out: EC50 K103N/Y181C (nM)
[7] = Human immunodeficiency virus 1, wild type, read-out: EC50 WT RT
[8] = wild type, read-out: EC50 WT RT
[9] = double mutant K103N/Y181C, read-out: EC50 K103N/Y181C
[10] = RT double mutant K103N/Y181C, read-out: IC50 K103N/Y181C

Row | SMILES | EC50 [1, 5] | EC50 [2, 6] | IC50 [3] | IC50 [4] | EC50 [1, 7] | EC50 [1, 8] | EC50 [2, 9] | IC50 [3, 10]
1 | CCN1c2ncc(CCOc3ccc(C(=O)Nc4ccc(CC(=O)O)cc4)cc3C)cc2C(=O)N(C)c2cccnc21 [Entry 3005] | < 10 nM | 10 to 50 nM | < 50 nM | < 50 nM | – | – | – | –
2 | CCN1c2ncc(CCOc3ccc(Nc4ccc(C(=O)O)cc4)cc3C)cc2C(=O)N(C)c2cccnc21 [Entry 3022, 4-{{4-[2-(11-Ethyl-6,11-dihydro-5-methyl-6-oxo-5H-dipyrido[3,2-b:2′,3′-e][1,4]diazepin-8-yl)ethoxy]-3-methylphenyl}amino}benzoic acid] | < 10 nM | 10 to 50 nM | < 50 nM | < 50 nM | – | – | – | –
3 | CCN1c2ncc(CCOc3ccc(-c4c[nH]cn4)cc3C)cc2C(=O)N(C)c2cccnc21 [Entry 1094, 11-Ethyl-5,11-dihydro-8-{2-[4-(1H-imidazol-4-yl)-2-methylphenoxy]ethyl}-5-methyl-6H-dipyrido[3,2-b:2′,3′-e][1,4]diazepin-6-one] | – | < 10 nM | < 50 nM | < 50 nM | < 10 nM | – | – | –
4 | CCN1c2ncc(CCOc3ccc(-c4ccc(CC(=O)O)cc4)cc3C)cc2C(=O)N(C)c2cccnc21 [Entry 1008] | – | – | – | < 50 nM | – | < 10 nM | < 10 nM | < 50 nM
5 | CCN1c2ncc(CCOc3ccc(NC(=O)CC(C)(C)C(=O)O)cc3C)cc2C(=O)N(C)c2cccnc21 [Entry 4008] | – | 10 to 50 nM | > 100 nM | < 50 nM | < 10 nM | – | – | –
6 | CCN1c2ncccc2NC(=O)c2cc(CCOc3ccc(-c4ccc(CC(=O)O)cc4)cc3C)cnc21 [Entry 1058] | – | – | – | < 50 nM | – | < 10 nM | 10 to 50 nM | 50 to 100 nM
7 | CCN1c2ncc(CCOc3ccc(-c4cn(C)cn4)cc3C)cc2C(=O)N(C)c2cccnc21 [Entry 1095, 11-Ethyl-5,11-dihydro-5-methyl-8-{2-[2-methyl-4-(1-methyl-1H-imidazol-4-yl)phenoxy]ethyl}-6H-dipyrido[3,2-b:2′,3′-e][1,4]diazepin-6-one] | – | < 10 nM | < 50 nM | < 50 nM | < 10 nM | – | – | –
8 | CCN1c2ncc(CCOc3ccc(S(=O)(=O)Nc4ccc(C(=O)O)cc4)cc3C)cc2C(=O)N(C)c2cccnc21 [Entry 3030] | – | – | – | < 50 nM | – | > 50 nM | > 50 nM | < 50 nM
9 | CCN1c2ncc(CCOc3ccc(C(=O)Nc4ccc[n+]([O-])c4)cc3C)cc2C(=O)Nc2c(C)ccnc21 [Entry 3020] | – | – | – | < 50 nM | – | < 10 nM | < 10 nM | < 50 nM
